Reference: patent publication US6762207B1, “(E)-styryl sulfone anticancer agents” (priority 1999, dated 2004)

Experiments:
Assay type in all cases: cell-based
Parameters in all cases: dose or concentration left out as unconfirmed
Conditions in all cases: 96 hours
[1] = system: breast tumor cell line BT-20; test: Trypan blue exclusion viability assay, BT20
Procedure: (§1) MCF-7 is estrogen-responsive, while BT-20 is an estrogen-unresponsive cell line. NIH/3T3 and HFL are normal murine and human fibroblasts, respectively. MCF-7, BT-20, DLD-1 and H157 were grown in Dulbecco's modified Eagle's medium (DMEM) containing 10% fetal bovine serum supplemented with penicillin and streptomycin. DU145 was cultured in RPMI with 10% fetal bovine serum containing penicillin and streptomycin. […] All cell cultures were maintained at 37° C. in a humidified atmosphere of 5% CO2. Cells were treated with test compound at 2.5 mM concentration and cell viability was determined after 96 hours by the Trypan blue exclusion method.

[2] = system: colorectal carcinoma cell line DLD-1; test: Trypan blue exclusion viability assay, DLD-1
Procedure: as §1

[3] = system: prostate tumor cell line DU-145; test: Trypan blue exclusion viability assay, DU145
Procedure: as §1

[4] = system: non-small cell lung carcinoma cell line H157; test: Trypan blue exclusion viability assay, H157
Procedure: as §1

Structure (SMILES) | Cell death, BT20 [1] | Cell death, DLD-1 [2] | Cell death, DU145 [3] | Cell death, H157 [4]
O=S(=O)(/C=C/c1ccc(Br)cc1)Cc1ccc(C(F)(F)F)cc1 [Example 3, (E)-4-Bromostyryl-4-trifluoromethylbenzylsulfone] | ++ (10-15% = ++) | + (5-10%: = +) | + (5-10%: = +) | –
O=S(=O)(/C=C/c1ccc(Cl)cc1)Cc1ccc(Cl)c(Cl)c1 [Example 7, (E)-4-Chlorostyryl-3,4-dichlorobenzylsulfone] | ++ (10-15% = ++) | – | − (0% = −) | –
O=S(=O)(/C=C/c1ccc(Br)cc1)Cc1ccc(Cl)c(Cl)c1 [Example 8, (E)-4-Bromostyryl-3,4-dichlorobenzylsulfone] | − (0% = −) | − (0% = −) | − (0% = −) | –
O=S(=O)(/C=C/c1ccc(F)cc1)Cc1ccc(I)cc1 [Example 19, (E)-4-Fluorostyryl-4-iodobenzylsulfone] | +++++ (Above 80% = +++++) | +++++ (Above 80% = +++++) | +++++ (Above 80% = +++++) | +++++ (Above 80% = +++++)
O=S(=O)(/C=C/c1ccc(I)cc1)Cc1ccc(Cl)cc1 [Example 21, (E)-4-Iodostyryl-4-chlorobenzylsulfone] | ++ (10-15% = ++) | ++ (10-15% = ++) | ++ (10-15% = ++) | ++ (10-15% = ++)
O=S(=O)(/C=C/c1ccc(I)cc1)Cc1ccc(Br)cc1 [Example 22, (E)-4-Iodostyryl-4-bromobenzylsulfone] | ++ (10-15% = ++) | ++ (10-15% = ++) | ++ (10-15% = ++) | ++ (10-15% = ++)
O=S(=O)(/C=C/c1ccc(Cl)cc1)Cc1ccc(I)cc1 [Example 23, (E)-4-Chlorostyryl-4-iodobenzylsulfone] | +++ (40-50% = +++) | ++ (10-15% = ++) | ++ (10-15% = ++) | ++ (10-15% = ++)
O=[N+]([O-])c1ccccc1/C=C/S(=O)(=O)Cc1ccc(I)cc1 [Example 25, (E)-2-Nitrostyryl-4-iodobenzylsulfone] | ++ (10-15% = ++) | ++ (10-15% = ++) | ++ (10-15% = ++) | ++ (10-15% = ++)
O=[N+]([O-])c1ccccc1/C=C/S(=O)(=O)Cc1ccc(F)cc1 [Example 29, (E)-2-nitrostyryl-4-fluorobenzylsulfone] | + (5-10%: = +) | + (5-10%: = +) | + (5-10%: = +) | + (5-10%: = +)
O=[N+]([O-])c1cccc(/C=C/S(=O)(=O)Cc2ccc(F)cc2)c1 [Example 30, (E)-3-nitrostyryl-4-fluorobenzylsulfone] | + (5-10%: = +) | + (5-10%: = +) | + (5-10%: = +) | + (5-10%: = +)
O=[N+]([O-])c1ccc(/C=C/S(=O)(=O)Cc2ccc(F)cc2)cc1 [Example 31, (E)-4-nitrostyryl-4-fluorobenzylsulfone] | ++++ (50-60% = ++++) | ++++ (50-60% = ++++) | ++++ (50-60% = ++++) | ++++ (50-60% = ++++)
O=S(=O)(/C=C/c1ccccc1C(F)(F)F)Cc1ccc(F)cc1 [Example 32, (E)-2-trifluoromethylstyryl-4-fluorobenzylsulfone] | + (5-10%: = +) | + (5-10%: = +) | + (5-10%: = +) | + (5-10%: = +)
O=S(=O)(/C=C/c1cccc(C(F)(F)F)c1)Cc1ccc(F)cc1 [Example 33, (E)-3-trifluoromethylstyryl-4-fluorobenzylsulfone] | + (5-10%: = +) | + (5-10%: = +) | + (5-10%: = +) | + (5-10%: = +)
O=S(=O)(/C=C/c1ccc(C(F)(F)F)cc1)Cc1ccc(F)cc1 [Example 34, (E)4-trifluoromethylstyryl-4-fluorobenzylsulfone] | + (5-10%: = +) | + (5-10%: = +) | + (5-10%: = +) | + (5-10%: = +)
O=S(=O)(/C=C/c1ccc(F)cc1C(F)(F)F)Cc1ccc(F)cc1 [Example 35, (E)-2-trifluoromethy-4-fluorostyryl-4-fluorobenzylsulfone] | + (5-10%: = +) | + (5-10%: = +) | + (5-10%: = +) | + (5-10%: = +)
O=[N+]([O-])c1ccccc1/C=C/S(=O)(=O)Cc1ccc(Cl)cc1 [Example 36, (E)-2-nitrostyryl-4-chlorobenzylsulfone] | + (5-10%: = +) | + (5-10%: = +) | + (5-10%: = +) | + (5-10%: = +)
O=[N+]([O-])c1cccc(/C=C/S(=O)(=O)Cc2ccc(Cl)cc2)c1 [Example 37, (E)-3-nitrostyryl-4-chlorobenzylsulfone] | + (5-10%: = +) | + (5-10%: = +) | + (5-10%: = +) | + (5-10%: = +)
O=[N+]([O-])c1ccc(/C=C/S(=O)(=O)Cc2ccc(Cl)cc2)cc1 [Example 38, (E)-4-nitrostyryl-4-chlorobenzylsulfone] | ++++ (50-60% = ++++) | ++++ (50-60% = ++++) | ++++ (50-60% = ++++) | ++++ (50-60% = ++++)
O=S(=O)(/C=C/c1ccccc1C(F)(F)F)Cc1ccc(Cl)cc1 [Example 39, (E)-2-trifluoromethylstyryl-4-chlorobenzylsulfone] | + (5-10%: = +) | + (5-10%: = +) | + (5-10%: = +) | + (5-10%: = +)
O=S(=O)(/C=C/c1cccc(C(F)(F)F)c1)Cc1ccc(Cl)cc1 [Example 40, (E)-3-trifluoromethylstyryl-4-chlorobenzylsulfone] | + (5-10%: = +) | + (5-10%: = +) | + (5-10%: = +) | + (5-10%: = +)
O=S(=O)(/C=C/c1ccc(C(F)(F)F)cc1)Cc1ccc(Cl)cc1 [Example 41, (E)-4-trifluoromethylstyryl-4-chlorobenzylsulfone] | + (5-10%: = +) | + (5-10%: = +) | + (5-10%: = +) | + (5-10%: = +)
O=S(=O)(/C=C/c1ccc(F)cc1C(F)(F)F)Cc1ccc(Cl)cc1 [Example 42, (E)-2-trifluoromethyl-4-fluorostyryl-4-chlorobenzylsulfone] | + (5-10%: = +) | + (5-10%: = +) | + (5-10%: = +) | + (5-10%: = +)
Cc1cc(/C=C/S(=O)(=O)Cc2ccc(Cl)cc2)ccc1F [Example 43, (E)-3-methyl-4-fluorostyryl-4-chlorobenzylsulfone] | + (5-10%: = +) | + (5-10%: = +) | + (5-10%: = +) | + (5-10%: = +)
O=[N+]([O-])c1ccccc1/C=C/S(=O)(=O)Cc1ccc(Cl)cc1Cl [Example 44, (E)-2-nitrostyryl-2,4-dichlorobenzylsulfone] | + (5-10%: = +) | + (5-10%: = +) | + (5-10%: = +) | + (5-10%: = +)
O=S(=O)(/C=C/c1ccc(F)cc1C(F)(F)F)Cc1ccc(Cl)cc1Cl [Example 45, (E)-2-trifluoromethyl-4-fluorostyryl-2,4-dichlorobenzylsulfone] | +++ (40-50% = +++) | +++ (40-50% = +++) | +++ (40-50% = +++) | +++ (40-50% = +++)
O=[N+]([O-])c1ccccc1/C=C/S(=O)(=O)Cc1ccc(Br)cc1 [Example 46, (E)-2-nitrostyryl-4-bromobenzylsulfone] | + (5-10%: = +) | + (5-10%: = +) | + (5-10%: = +) | + (5-10%: = +)
O=[N+]([O-])c1cccc(/C=C/S(=O)(=O)Cc2ccc(Br)cc2)c1 [Example 47, (E)-3-nitrostyryl-4-bromobenzylsulfone] | + (5-10%: = +) | + (5-10%: = +) | + (5-10%: = +) | + (5-10%: = +)
O=[N+]([O-])c1ccc(/C=C/S(=O)(=O)Cc2ccc(Br)cc2)cc1 [Example 48, (E)-4-nitrostyryl-4-bromobenzylsulfone] | ++++ (50-60% = ++++) | ++++ (50-60% = ++++) | ++++ (50-60% = ++++) | ++++ (50-60% = ++++)
O=S(=O)(/C=C/c1ccccc1C(F)(F)F)Cc1ccc(Br)cc1 [Example 49, (E)-2-trifluoromethylstyryl-4-bromobenzylsulfone] | + (5-10%: = +) | + (5-10%: = +) | + (5-10%: = +) | + (5-10%: = +)
N#Cc1ccc(CS(=O)(=O)/C=C/c2ccccc2[N+](=O)[O-])cc1 [Example 52, (E)-2-nitrostyryl-4-cyanobenzylsulfone] | + (5-10%: = +) | + (5-10%: = +) | + (5-10%: = +) | + (5-10%: = +)
